US8729102B2, “Bicyclic compound” (Takeda Pharmaceutical Company Limited, priority 2010, dated 2014)

Experiments:
[1] = target: T1, Human ACC2 (ACC2 (Nd), N terminal deleted) (Homo sapiens, UniProt O00763); experiment: Measurement of ACC2 inhibitory activity (malachite green, recombinant ACC2 (Nd)); type: biochemical; details: 10 μM test compound, 20 min preincubation at 30° C., 20 min reaction; for inhibition at 10 µM: read-out: ACC2 inhibitory rate at 10 μM (%)
T1 construct: made in house; host or cells: SF-9 insect cells (baculovirus)
T1 sequence (O00763 117-2458 limits assumed, stated change not applied): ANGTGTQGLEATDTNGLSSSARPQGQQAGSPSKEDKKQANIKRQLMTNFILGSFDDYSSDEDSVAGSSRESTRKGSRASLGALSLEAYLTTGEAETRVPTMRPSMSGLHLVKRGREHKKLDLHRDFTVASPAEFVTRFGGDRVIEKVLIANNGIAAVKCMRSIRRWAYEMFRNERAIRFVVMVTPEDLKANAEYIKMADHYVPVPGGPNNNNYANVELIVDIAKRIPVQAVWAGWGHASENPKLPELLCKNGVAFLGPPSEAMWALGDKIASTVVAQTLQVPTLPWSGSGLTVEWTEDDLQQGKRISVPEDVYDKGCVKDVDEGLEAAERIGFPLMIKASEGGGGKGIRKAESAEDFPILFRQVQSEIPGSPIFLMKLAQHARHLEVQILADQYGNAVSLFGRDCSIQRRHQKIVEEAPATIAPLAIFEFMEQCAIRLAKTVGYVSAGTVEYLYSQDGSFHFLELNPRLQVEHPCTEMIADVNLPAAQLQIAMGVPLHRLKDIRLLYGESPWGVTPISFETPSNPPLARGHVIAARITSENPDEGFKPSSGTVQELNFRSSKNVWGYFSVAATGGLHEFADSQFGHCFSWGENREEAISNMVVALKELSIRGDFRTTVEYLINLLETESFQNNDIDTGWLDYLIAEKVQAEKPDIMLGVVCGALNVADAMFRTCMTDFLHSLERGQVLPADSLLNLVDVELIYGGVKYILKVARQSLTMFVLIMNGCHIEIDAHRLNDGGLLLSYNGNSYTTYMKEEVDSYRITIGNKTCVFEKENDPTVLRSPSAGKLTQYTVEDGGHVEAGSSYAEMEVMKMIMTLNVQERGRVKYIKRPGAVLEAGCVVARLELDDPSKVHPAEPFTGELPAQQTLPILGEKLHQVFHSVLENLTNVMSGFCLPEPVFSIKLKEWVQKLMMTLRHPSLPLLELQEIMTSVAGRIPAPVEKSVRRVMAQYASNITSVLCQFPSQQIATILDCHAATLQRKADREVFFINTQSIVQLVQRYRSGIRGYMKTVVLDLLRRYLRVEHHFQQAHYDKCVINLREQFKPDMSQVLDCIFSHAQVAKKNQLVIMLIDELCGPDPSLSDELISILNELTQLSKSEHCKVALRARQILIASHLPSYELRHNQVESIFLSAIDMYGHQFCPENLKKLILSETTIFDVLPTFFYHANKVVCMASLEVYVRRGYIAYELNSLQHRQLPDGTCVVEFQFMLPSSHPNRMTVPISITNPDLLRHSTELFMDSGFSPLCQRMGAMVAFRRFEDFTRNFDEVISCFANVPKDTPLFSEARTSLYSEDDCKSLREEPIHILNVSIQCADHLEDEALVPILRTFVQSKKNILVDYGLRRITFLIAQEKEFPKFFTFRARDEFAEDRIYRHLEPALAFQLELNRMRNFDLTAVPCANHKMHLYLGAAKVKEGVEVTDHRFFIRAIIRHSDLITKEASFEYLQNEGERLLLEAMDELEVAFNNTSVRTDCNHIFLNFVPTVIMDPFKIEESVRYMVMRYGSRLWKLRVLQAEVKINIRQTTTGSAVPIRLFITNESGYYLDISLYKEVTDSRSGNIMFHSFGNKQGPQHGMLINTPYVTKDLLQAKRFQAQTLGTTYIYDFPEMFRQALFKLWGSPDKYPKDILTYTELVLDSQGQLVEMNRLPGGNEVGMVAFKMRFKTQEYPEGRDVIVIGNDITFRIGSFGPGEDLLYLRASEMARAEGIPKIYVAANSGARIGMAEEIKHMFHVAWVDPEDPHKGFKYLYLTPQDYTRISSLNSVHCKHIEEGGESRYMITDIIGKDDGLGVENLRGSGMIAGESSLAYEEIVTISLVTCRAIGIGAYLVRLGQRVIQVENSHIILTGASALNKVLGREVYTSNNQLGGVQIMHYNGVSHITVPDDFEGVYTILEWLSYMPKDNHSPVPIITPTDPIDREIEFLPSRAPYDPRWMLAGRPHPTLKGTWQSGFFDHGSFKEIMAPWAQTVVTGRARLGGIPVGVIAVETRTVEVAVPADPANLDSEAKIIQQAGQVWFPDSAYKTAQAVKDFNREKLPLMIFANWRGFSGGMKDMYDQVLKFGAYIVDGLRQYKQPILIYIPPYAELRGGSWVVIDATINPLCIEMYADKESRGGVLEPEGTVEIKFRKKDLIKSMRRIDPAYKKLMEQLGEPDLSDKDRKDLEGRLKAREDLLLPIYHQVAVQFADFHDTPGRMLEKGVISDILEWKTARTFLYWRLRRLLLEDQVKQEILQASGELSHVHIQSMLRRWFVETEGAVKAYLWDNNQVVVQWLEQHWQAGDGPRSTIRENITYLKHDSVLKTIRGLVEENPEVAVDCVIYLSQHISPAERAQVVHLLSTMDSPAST
Protocol: The ACC2 inhibitory action of the compound of the present invention was evaluated by the following method.
(1) Cloning of Human ACC2 Gene and Preparation of Recombinant Baculovirus
Human ACC2 gene was cloned by PCR using a human skeletal muscle cDNA library (Clontech) as a template and Primer 1 and Primer 2 shown below. Primer 1 and Primer 2 were prepared by adding SalI, XbaI restriction enzyme recognition sequences based on the information of the base sequence of human ACC2 gene (Genbank Accession U89344).
(§1) PCR was performed using Pyrobest DNA polymerase (TAKARA BIO INC.). The obtained PCR product was cloned to pT7 Blue vector (Novagen) and after confirmation of the base sequence, digested with restriction enzymes SalI and XbaI. The obtained DNA fragment was inserted into pFAST-BacHTa (Invitrogen) digested with restriction enzymes Sail and XbaI to give expression plasmid ACC2/pFAST-BacHTa.
A plasmid for expression of ACC2 without a mitochondrial targeting sequence was prepared by PCR using the expression plasmid as a template, and Primer 3 (salI restriction enzyme recognition sequence was added) and Primer 4, which are prepared by reference to the information of human ACC2 gene base sequence (Genbank Accession U89344).
as §1, with “Pyrobest-DNA” for “Pyrobest DNA”, “Aflil.” for “XbaI.”, “ACC2/pFAST-BacHTa” for “pFAST-BacHTa (Invitrogen)”, “SalI” for “Sail”, “AfilI” for “XbaI”, “ACC2mito7/pFAST-BacHTa.” for “ACC2/pFAST-BacHTa.”
Using the expression plasmid ACC2mito7/pFAST-BacHTa and BAC-TO-BAC Baculovirus Expression System (Invitrogen), virus stock BAC-ACC2 of recombinant Baculovirus (N terminal deleted (hereinafter Nd)) was prepared.
(2) Preparation of ACC2 (Nd) Protein
SF-9 cells (Invitrogen) were inoculated to a medium (2 L) for insect cells (Sf-900IISFM medium (Invitrogen) containing 10% fetal bovine serum (Trace), 50 mg/L Gentamicin (Invitrogen), 0.1% Pluronic F-68 (Invitrogen)) at 0.5×10^6 cells/mL, and cultured with shaking in Wave Bioreactor (Wave) at 27° C., 20 rpm, rocking angle 6°, oxygen concentration 30%.
On day 4 of the culture, 3 L of the medium for insect cells was added, the rocking angle was set to 8°, and the cells were further cultured. On day 5 of the culture, 100 mL of recombinant Baculovirus BAC-ACC2 (Nd) was added, 5 L of the medium for insect cells was further added, the rocking angle was set to 11°, and the cells were cultured for 3 days. The culture medium was centrifuged at 1000×g for 10 min to give virus-infected cells. The cells were washed with phosphate buffered saline (Invitrogen) and centrifuged under the same conditions. The obtained cells were cryopreserved at −80° C.
The cryopreserved cells were thawed in ice and suspended in 900 mL of 25 mM HEPES buffer (pH 7.5) containing 10% Glycerol, 0.13 M NaCl, 1 mM EDTA, 25 mM Sodium β-Glycerophosphate and 1 mM Sodium Orthovanadate, and supplemented with Complete Protease Inhibitor (Nippon Boehringer Ingelheim Co., Ltd.). The obtained suspension was homogenized three times in a polytron homogenizer (Kinematica) at 20,000 rpm for 30 sec. The obtained cell disruption solution was clarified by centrifugation at 31000×g for 60 min, and filtered through a 0.45 μm filter. The filtrate was passed through a column packed with 60 mL of Ni-NTA Super Flow Gel (QUIAGEN) at a flow rate of about 5 mL/min. The column was washed with buffer A (50 mM HEPES (pH 7.5) containing 0.3 M NaCl), further washed with buffer A containing 20 mM Imidazole, and eluted with buffer A containing 100 mM Imidazole. The eluate was concentrated with Vivaspin 20 (Vivascience) with a molecular weight cut off of 30K. The obtained concentrate was dialyzed against 50 mM HEPES (pH 7.5) containing 10 mM MgCl2, 2 mM Dithiothreitol, 10 mM Tripotassium Citrate and 0.3 M NaCl. […]

[2] = tested on: Malonyl-CoA content of femoral muscle; experiment: Malonyl CoA content measurement in femoral muscle after gavage (LC/MS/MS); type: in vivo; details: male F344/Jcl rats, 10 mg/kg by gavage, femoral muscle 2 hours after dosing; Mean ± S.D.; vehicle 1.955 ± 0.496
Protocol: Male F344/Jcl rats (CLEA Japan, Inc., Tokyo) purchased at 5 weeks of age were acclimated to the rearing environment, and used for an experiment of malonyl CoA content measurement at 10 weeks of age. In the experiment of malonyl CoA content measurement, the body weight was measured in the morning (8:00-11:00) 3 days before administration of a test compound, and the rats were divided into groups free of dispersion in the body weight between administration groups. The test compound was prepared as a 0.5% methyl cellulose (Wako) suspension to a dose of 5 mL/kg, in the afternoon (12:00-17:00) of one day before administration by gavage, and administered by gavage according to the body weight on the day of test compound administration. The vehicle group was administered with a solvent (0.5% methyl cellulose) alone by gavage. […]
A sample homogenate for the malonyl CoA measurement was prepared by disrupting a frozen tissue with a measured weight in a Multi-beads shocker (MB400U, Yasui Kikai Corporation), adding an extract (6% perchloric acid:aqueous di-n-butylammonium acetate solution (IPC-DBAA, 0.5 mol/L, TOKYO CHEMICAL INDUSTRY CO., LTD.)=1000:1, 500 μL) containing an internal standard substance ([^13C3]-malonyl CoA lithium salt (100 pmol/mL, Sigma-Aldrich)), and applying the mixture to the Multi-beads shocker again. […]

Molecule CC(=O)N[C@@H](C)COc1ccc(-c2nc3ccc(OCC4CC4)cc3o2)nc1 [Example 1, N-[(1S)-2-({6-[6-(cyclopropylmethoxy)-1,3-benzoxazol-2-yl]pyridin-3-yl}oxy)-1-methylethyl]acetamide] has a melting point of 179 to 180 °C and an inhibition at 10 µM [1] of 101%.
CC(=O)N[C@@H](C)COc1cc(-c2nc3cc(OCC4CC4)ccc3o2)on1 [Example 2, N-[(1S)-2-({5-[5-(cyclopropylmethoxy)-1,3-benzoxazol-2-yl]isoxazol-3-yl}oxy)-1-methylethyl]acetamide] gave a melting point of 156 to 157 °C and an inhibition at 10 µM [1] of 92%.
For CC(=O)N[C@@H](C)COc1cnc(-c2nc3ccc(OCC4CC4)cc3o2)c(F)c1 [Example 6, N-[(1S)-2-({6-[6-(cyclopropylmethoxy)-1,3-benzoxazol-2-yl]-5-fluoropyridin-3-yl}oxy)-1-methylethyl]acetamide], the “malonyl-CoA (nmol/g-tissue), Malonyl-CoA content of femoral muscle at 2 hours after dosing” value [2] was 0.513 ± 0.048 nmol/g-tissue, the melting point was 158 to 159 °C and the inhibition at 10 µM [1] was 95%.
With CCOc1ccc2nc(-c3ccc(OC[C@H](C)NC(C)=O)cn3)oc2c1 [Example 28, N-[(1S)-2-{[6-(6-ethoxy-1,3-benzoxazol-2-yl)pyridin-3-yl]oxy}-1-methylethyl]acetamide] the “malonyl-CoA (nmol/g-tissue), Malonyl-CoA content of femoral muscle at 2 hours after dosing” value [2] was 0.663 ± 0.119 nmol/g-tissue and the inhibition at 10 µM [1] was 83%.
For C[C@@H](COc1cnc(-c2nc3ccc(OCC4CC4(F)F)cc3o2)c(F)c1)NC(N)=O (stereo partly drawn) [Example 112, Diastereomer of 1-{(1S)-2-[(6-{6-[(2,2-difluorocyclopropyl)methoxy]-1,3-benzoxazol-2-yl}-5-fluoropyridin-3-yl)oxy]-1-methylethyl}urea (retention time: long)], the “ACC2 inhibitory rate at 10 μM (%)” value ([1]; 10 µM) was 100%.
Work on CCC1(c2ccc(OC[C@H](C)NC(C)=O)cn2)Cc2ccc(OCC3CC3)cc2O1 (stereo partly drawn) [Example 119, Diastereomer of N-[(1S)-2-({6-[6-(cyclopropylmethoxy)-2-ethyl-2,3-dihydro-1-benzofuran-2-yl]pyridin-3-yl}oxy)-1-methylethyl]acetamide] yielded an inhibition at 10 µM [1] of 97%.
